Data: the supplement of paper PMC10307832

Tests used:
Assay in all cases: relative viability (nuclei count vs DMSO), 5 days (fraction); higher = more cells survive
[1] = compound: C/C(=N\NC(=S)N1CCC1)/C2=CC=CC=N2 + CC1(C)CCC(c2ccc(Cl)cc2)=C(CN2CCN(c3ccc(C(=O)NS(=O)(=O)c4ccc(N[C@H](CCN5CCOCC5)CSc5ccccc5)c(S(=O)(=O)C(F)(F)F)c4)cc3)CC2)C1 [Navitoclax] (partner 0.5 µM)
Summary of the method: (§1)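 Lung cancer cell lines were pin-tool dosed in 1536-well plates on the day after seeding, with either a lone drug or a fixed anchor-drug dose plus five library-drug doses (not always all listed) in √10 steps. Nuclei were counted on 4× images after 5 days. Relative viability is the ratio of treated-well to vehicle-well nuclei counts, with each value a median of duplicate plates.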

[2] = compound: C/C(=N\NC(=S)N1CCC1)/C2=CC=CC=N2 + C[C@@H](Oc1cc(-c2cnn(C3CCNCC3)c2)cnc1N)c1c(Cl)ccc(F)c1Cl [Crizotinib] (partner 1 µM)
Summary of the method: as §1

[3] = compound: C/C(=N\NC(=S)N1CCC1)/C2=CC=CC=N2 + O=C(CCCCCCC(=O)Nc1ccccc1)NO [Vorinostat] (partner 1 µM)
Summary of the method: as §1

[4] = compound: C/C(=N\NC(=S)N1CCC1)/C2=CC=CC=N2 + Cc1cc(Nc2cc(N3CCN(C)CC3)nc(Sc3ccc(NC(=O)C4CC4)cc3)n2)n[nH]1 [Tozasertib] (partner 0.1 µM)
Summary of the method: as §1

Cell Line | relative viability ([1]; first compound 0.05 µM) | relative viability ([1]; first compound 0.1581 µM) | relative viability ([1]; first compound 0.5 µM) | relative viability ([1]; first compound 1.581 µM) | relative viability ([1]; first compound 5 µM) | relative viability ([2]; first compound 0.05 µM) | relative viability ([2]; first compound 0.1581 µM) | relative viability ([2]; first compound 0.5 µM) | relative viability ([2]; first compound 1.581 µM) | relative viability ([2]; first compound 5 µM) | relative viability ([3]; first compound 0.05 µM) | relative viability ([3]; first compound 0.1581 µM) | relative viability ([3]; first compound 0.5 µM) | relative viability ([3]; first compound 1.581 µM) | relative viability ([3]; first compound 5 µM) | relative viability ([4]; first compound 0.05 µM) | relative viability ([4]; first compound 0.1581 µM) | relative viability ([4]; first compound 0.5 µM) | relative viability ([4]; first compound 1.581 µM) | relative viability ([4]; first compound 5 µM)
COR-L 105 | 0.288 | 0.316 | 0.26 | 0.236 | 0.317 | 0.231 | 0.252 | 0.224 | 0.205 | 0.256 | 0.345 | 0.346 | 0.345 | 0.304 | 0.291 | 0.205 | 0.245 | 0.229 | 0.231 | 0.22
LK-2 | 0.121 | 0.146 | 0.108 | 0.112 | 0.126 | 0.197 | 0.255 | 0.266 | 0.226 | 0.215 | 0.117 | 0.143 | 0.145 | 0.169 | 0.127 | 0.166 | 0.139 | 0.157 | 0.147 | 0.149
NCI-H727 | 0.109 | 0.0812 | 0.098 | 0.189 | 0.257 | 0.193 | 0.145 | 0.138 | 0.179 | 0.157 | 0.298 | 0.327 | 0.299 | 0.311 | 0.304 | 0.28 | 0.311 | 0.257 | 0.159 | 0.261
RERF-LC-KJ | 0.184 | 0.266 | 0.245 | 0.159 | 0.227 | 0.224 | 0.263 | 0.253 | 0.239 | 0.242 | 0.214 | 0.207 | 0.19 | 0.21 | 0.208 | 0.203 | 0.208 | 0.246 | 0.217 | 0.242
NCI-H2023 | 0.0701 | 0.096 | 0.0791 | 0.0888 | 0.0996 | 0.1 | 0.0841 | 0.08 | 0.0545 | 0.0727 | 0.082 | 0.0635 | 0.0543 | 0.0492 | 0.043 | 0.063 | 0.0672 | 0.0602 | 0.0657 | 0.0603
NCI-H322M | 0.268 | 1.21 | 0.208 | 0.281 | 0.277 | 0.312 | 0.988 | 0.213 | 0.247 | 0.254 | 0.337 | 0.345 | 0.358 | 0.465 | 0.438 | 0.271 | 0.27 | 0.241 | 0.313 | 0.364
NCI-H1666 | 0.185 | 0.248 | 0.208 | 0.248 | 0.262 | 0.204 | 0.221 | 0.216 | 0.195 | 0.207 | 0.575 | 0.579 | 0.538 | 0.501 | 0.494 | 0.35 | 0.33 | 0.301 | 0.3 | 0.305
NCI-H1648 |  |  |  |  |  |  |  |  |  |  | 0.217 | 0.48 | 0.339 | 0.342 | 0.245 | 0.275 | 0.216 | 0.229 | 0.309 | 0.233
NCI-H2087 | 0.248 | 0.212 | 0.185 | 0.146 | 0.18 | 0.323 | 0.274 | 0.284 | 0.187 | 0.171 | 0.145 | 0.0717 | 0.14 | 0.0948 | 0.098 | 0.0992 | 0.0962 | 0.114 | 0.0938 | 0.0874
LU99A | 0.196 | 0.181 | 0.139 | 0.154 | 0.187 | 0.23 | 0.0986 | 0.168 | 0.133 | 0.143 | 0.147 | 0.152 | 0.137 | 0.131 | 0.161 | 0.155 | 0.164 | 0.164 | 0.152 | 0.165
HCC-366 | 0.0139 | 0.0237 | 0.0184 | 0.0179 | 0.0172 | 0.0857 | 0.0157 | 0.0133 | 0.0162 | 0.018 | 0.0207 | 0.0269 | 0.0257 | 0.0337 | 0.0244 | 0.0183 | 0.0481 | 0.0208 | 0.0215 | 0.0265
EKVX | 0.127 | 0.131 | 0.119 | 0.132 | 0.137 | 0.142 | 0.159 | 0.121 | 0.137 | 0.159 | 0.196 | 0.223 | 0.186 | 0.205 | 0.221 | 0.131 | 0.108 | 0.101 | 0.103 | 0.12
NCI-H522 |  |  |  |  |  |  |  |  |  |  | 0.272 | 0.322 | 0.265 | 0.369 | 0.411 |  | 0.292 | 0.296 |  | 0.407
NCI-H1755 | 0.321 | 0.928 | 0.142 | 0.18 | 0.186 | 0.753 | 0.664 | 0.16 | 0.174 | 0.176 | 0.294 | 0.226 | 0.223 | 0.233 | 0.225 | 0.465 | 0.305 | 0.213 | 0.278 | 0.258
NCI-H647 | 0.133 | 0.129 | 0.117 | 0.123 | 0.116 | 0.202 | 0.122 | 0.162 | 0.096 | 0.104 | 0.115 | 0.0948 | 0.106 | 0.0935 | 0.102 | 0.0603 | 0.0452 | 0.0549 | 0.0672 | 0.0612
LC-2-ad | 0.0933 | 0.0992 | 0.0713 | 0.0966 | 0.121 | 0.226 | 0.207 | 0.198 | 0.171 | 0.143 | 0.197 | 0.172 | 0.191 | 0.185 | 0.17 | 0.253 | 0.244 | 0.23 | 0.171 | 0.207

Cell Line | relative viability ([1]; first compound 0.05 µM) | relative viability ([1]; first compound 0.1581 µM) | relative viability ([1]; first compound 0.5 µM) | relative viability ([1]; first compound 1.581 µM) | relative viability ([1]; first compound 5 µM) | relative viability ([2]; first compound 0.05 µM) | relative viability ([2]; first compound 0.1581 µM) | relative viability ([2]; first compound 0.5 µM) | relative viability ([2]; first compound 1.581 µM) | relative viability ([2]; first compound 5 µM) | relative viability ([3]; first compound 0.05 µM) | relative viability ([3]; first compound 0.1581 µM) | relative viability ([3]; first compound 0.5 µM) | relative viability ([3]; first compound 1.581 µM) | relative viability ([3]; first compound 5 µM) | relative viability ([4]; first compound 0.05 µM) | relative viability ([4]; first compound 0.1581 µM) | relative viability ([4]; first compound 0.5 µM) | relative viability ([4]; first compound 1.581 µM) | relative viability ([4]; first compound 5 µM)
NCI-H1793 | 0.225 | 0.208 | 0.19 | 0.149 | 0.225 |  |  |  |  |  | 0.189 | 0.139 | 0.127 | 0.124 | 0.133 | 0.164 | 0.209 | 0.152 | 0.136 | 0.126
HCC-827 | 0.639 | 1.02 | 0.308 | 0.273 | 0.241 | 0.675 | 0.894 | 0.307 | 0.296 | 0.204 | 0.251 | 0.214 | 0.18 | 0.233 | 0.149 | 0.383 | 0.36 | 0.225 | 0.185 | 0.148
HCC-78 | 0.492 | 0.245 | 0.218 | 0.189 | 0.12 | 0.338 | 0.251 | 0.237 | 0.142 | 0.167 | 0.427 | 0.414 | 0.338 | 0.23 | 0.231 | 0.332 | 0.205 | 0.248 | 0.206 | 0.202
NCI-H2085 | 0.246 | 0.248 | 0.245 | 0.248 | 0.281 | 0.269 | 0.236 | 0.25 | 0.219 | 0.225 | 0.339 | 0.379 | 0.355 | 0.288 | 0.305 | 0.372 | 0.366 | 0.388 | 0.315 | 0.315
NCI-H2342 |  |  |  |  |  |  |  |  |  |  | 0.28 | 0.288 | 0.267 | 0.234 | 0.265 | 0.229 | 0.264 | 0.263 | 0.219 | 0.247
ABC-1 |  |  |  |  |  | 0.23 | 0.189 | 0.2 | 0.172 | 0.142 | 0.268 | 0.339 | 0.308 | 0.275 | 0.302 | 0.193 | 0.146 | 0.152 | 0.168 | 0.163
NCI-H661 |  |  |  |  |  | 0.361 | 0.322 | 0.263 | 0.349 | 0.288 | 0.324 | 0.297 | 0.289 | 0.283 | 0.259 | 0.239 | 0.261 | 0.23 | 0.235 | 0.248
NCI-H358 |  |  |  |  |  | 0.13 | 0.157 | 0.14 | 0.102 | 0.144 | 0.0785 | 0.0651 | 0.0611 | 0.0639 | 0.0677 | 0.0651 | 0.0617 | 0.0695 | 0.0742 | 0.0612
EBC-1 | 0.135 | 0.146 | 0.136 | 0.134 | 0.174 | 0.173 | 0.187 | 0.163 | 0.162 | 0.128 |  |  |  |  |  |  |  |  |  | 
NCI-H650 |  |  |  |  |  | 0.187 | 0.195 | 0.221 | 0.146 | 0.171 | 0.152 | 0.163 | 0.152 | 0.177 | 0.139 | 0.184 | 0.189 | 0.185 | 0.158 | 0.16
NCI-H1792 | 0.256 | 0.274 | 0.127 | 0.0935 | 0.084 | 0.38 | 0.453 | 0.245 | 0.186 | 0.108 |  |  |  |  |  |  |  |  |  | 
A549 | 0.0538 | 0.0583 | 0.05 | 0.0608 | 0.0344 | 0.0427 | 0.0518 | 0.0568 | 0.044 | 0.0637 |  |  |  |  |  |  |  |  |  | 
NCI-H1703 | 0.124 | 0.134 | 0.156 | 0.124 | 0.122 | 0.15 | 0.103 | 0.0957 | 0.115 | 0.0425 |  |  |  |  |  |  |  |  |  | 
LCLC-103H |  |  |  |  |  | 0.838 | 0.917 | 0.321 | 0.335 | 0.3 | 0.344 | 0.321 | 0.286 | 0.254 | 0.296 | 0.244 | 0.175 | 0.202 | 0.133 | 0.165
NCI-H1563 |  |  |  |  |  | 0.604 | 0.557 | 0.526 | 0.553 | 0.527 |  |  |  |  |  |  |  |  |  | 
NCI-H1395 | 0.4 | 0.346 | 0.365 | 0.338 | 0.352 |  |  |  |  |  | 0.302 | 0.405 | 0.31 | 0.312 | 0.339 | 0.389 | 0.347 | 0.359 | 0.34 | 0.328
